Measured values as given in publication PMC12362796, “Bilirubin Targeting WNK1 to Alleviate NLRP3‐Mediated Neuroinflammation” (Advanced Science, 2025).

Columns and labels:
hWNK1(181–507 S382A) = molecular target: T1, hWNK1(181–507 S382A) (Homo sapiens, UniProt Q9H4A3, S382A); assay: ADP-Glo kinase assay, kinase-dead WNK1 mutant control; type: biochemical; conditions: negative control
T1 construct: The kinase‐dead WNK1 mutant hWNK1(181–507 S382A) served as a negative control
Text: Given the binding of bilirubin to the kinase domain of WNK1, we aimed to explore its effect on WNK1 with a particular focus on its kinase activity. To evaluate WNK1 kinase activity, we utilized an in vitro kinase enzyme assay system to quantify ADP production by the amino acid fragment 181–507 of human WNK1 (hWNK1) over a range of bilirubin concentrations. The kinase‐dead WNK1 mutant hWNK1(181–507 S382A) served as a negative control (Figure S10, Supporting Information).^[ [30] ^]
WNK1 kinase activity was measured using the ADP‐Glo Kinase Assay (Promega, Cat. V9101) following the manufacturer's instructions. Purified protein was incubated with bilirubin across a range of 12 serially diluted concentrations, beginning at a maximum concentration of 20 µM. After the incubation period, luminescence was recorded using a microplate reader (Synergy H1M, BioTek)

HEK 293T cell line = assay: MQAE intracellular chloride measurement in HEK 293T cell line; type: cell-based, human; conditions: lacking KCC2 expression
Text: (§1) Since bilirubin‐induced activation of WNK1 kinase activity increases [Cl⁻]i in neurons, we sought to elucidate the downstream effector proteins of WNK1 that are involved in this process. Neuronal [Cl⁻]i is primarily regulated by the Cl⁻‐K⁺ symporter KCC2, with additional modulation by factors such as the Na⁺‐K⁺‐Cl⁻ co‐transporter NKCC1, GABAA receptors, and glycine receptors (GlyR), all of which contribute to [Cl⁻]i homeostasis.^[ [31] ^] To investigate the mechanism underlying bilirubin‐induced changes in [Cl⁻]i, we selectively targeted these proteins using pharmacological inhibitors (VU0463271 for KCC2, bumetanide for NKCC1, bicuculline for GABAA receptors, and strychnine for GlyR) and activated KCC2 using CLP257.^[ [35], [36] ^] […] The bilirubin‐induced effect on [Cl⁻]i was not observed in primary astrocytes (Figure S15A,B, Supporting Information) or the HEK 293T cell line (Figure S15C, Supporting Information), both of which lacked KCC2 expression (Figure S16A,B, Supporting Information), further confirming that the effects of bilirubin and WNK1 on [Cl⁻]i elevation are dependent on KCC2.
(§2) Intracellular chloride concentration ([Cl⁻]i) was measured using the MQAE fluorescent dye (Life Technologies) following established protocols (Zhang, Lee et al. 2015). […]

WNK1 (1–491) = molecular target: T2, WNK1 (1–491) (Homo sapiens, UniProt Q9H4A3); assay: MST, EGFP-tagged WNK1 truncation 1–491; type: binding; conditions: WNK1 1–491, 15 min, HEK293T lysates
T2 construct: different lengths of WNK1 truncations (1–491, 1–190, 191–491, 491–2382); expressed in transfected cells; host or cells: HEK293T
T2 sequence (Q9H4A3 1-491): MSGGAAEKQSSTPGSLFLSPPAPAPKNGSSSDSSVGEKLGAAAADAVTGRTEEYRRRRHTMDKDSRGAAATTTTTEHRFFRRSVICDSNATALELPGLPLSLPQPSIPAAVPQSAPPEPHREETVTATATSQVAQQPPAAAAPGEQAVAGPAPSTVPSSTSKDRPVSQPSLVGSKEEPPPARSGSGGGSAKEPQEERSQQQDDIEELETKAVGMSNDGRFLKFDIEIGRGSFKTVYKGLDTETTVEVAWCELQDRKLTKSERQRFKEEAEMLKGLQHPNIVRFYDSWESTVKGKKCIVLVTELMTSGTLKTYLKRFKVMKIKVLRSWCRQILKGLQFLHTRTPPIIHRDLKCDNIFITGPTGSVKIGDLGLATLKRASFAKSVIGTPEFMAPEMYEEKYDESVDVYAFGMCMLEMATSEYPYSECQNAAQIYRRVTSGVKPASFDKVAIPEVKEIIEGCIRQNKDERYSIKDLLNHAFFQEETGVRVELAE
Text: To further validate these findings, we constructed GFP‐tagged fusion proteins with different lengths of WNK1 truncations (1–491, 1–190, 191–491, 491–2382) based on the WNK1 domains (Figure 3E) and analyzed their binding capacity with bilirubin using MST analysis.^[ [29] ^]
All WNK1 clones were derived from the original untagged hWNK1 cDNA (NM_018979), which was modified and subcloned into the pcDNA3.1, referred to as “full‐length WNK1” throughout this study. Truncated constructs, including 1–190aa, 191–491aa, 1–491aa, and 491–2382aa fragments, were generated by PCR using the full‐length template and subsequently ligated into linearized pcDNA3.1 vectors. WNK2 was obtained from Addgene Plasmid #24569, and WNK3 was obtained from Addgene Plasmid #81723. Both were subjected to base modifications and cloned into pcDNA3.1. The WNK4 clone was derived from hWNK4 cDNA (NM_032387.5), modified, and subcloned into the pCMV3‐C‐GFPSpark vector.
In HEK293T cells, proteins tagged with green fluorescent protein (GFP) were expressed. The cells were lysed using the M‐PER Mammalian Protein Extraction Reagent (cat. no. 78505, Thermo Scientific) supplemented with protease inhibitors. Lysates were centrifuged at 12000 × g for 15 min at 4 °C, and the supernatant containing proteins was diluted 10‐fold with 1x PBST. […]

phospho-S940 KCC2 = assay: Western blotting of phospho-S940 KCC2 in hippocampal tissue; type: cell-based, mouse
Text: Since bilirubin‐induced activation of WNK1 kinase activity increases [Cl⁻]i in neurons, we sought to elucidate the downstream effector proteins of WNK1 that are involved in this process. Neuronal [Cl⁻]i is primarily regulated by the Cl⁻‐K⁺ symporter KCC2, with additional modulation by factors such as the Na⁺‐K⁺‐Cl⁻ co‐transporter NKCC1, GABAA receptors, and glycine receptors (GlyR), all of which contribute to [Cl⁻]i homeostasis.^[ [31] ^] To investigate the mechanism underlying bilirubin‐induced changes in [Cl⁻]i, we selectively targeted these proteins using pharmacological inhibitors (VU0463271 for KCC2, bumetanide for NKCC1, bicuculline for GABAA receptors, and strychnine for GlyR) and activated KCC2 using CLP257.^[ [35], [36] ^] […]
Cells or tissues were lysed by grinding in RIPA buffer (cat. no. PC101; Epizyme Biotech) supplemented with a protease inhibitor cocktail (cat. no. 5872S; Cell Signaling Technology) at 4 °C. […] The total protein concentration was determined using the Pierce BCA Protein Assay Kit (cat. no. 23 225, Thermo Fisher Scientific). […]

primary astrocytes = assay: MQAE intracellular chloride measurement in primary astrocytes; type: cell-based; conditions: lacking KCC2 expression
Text: as §1, §2

T1 sequence (Q9H4A3 181-507 S382A): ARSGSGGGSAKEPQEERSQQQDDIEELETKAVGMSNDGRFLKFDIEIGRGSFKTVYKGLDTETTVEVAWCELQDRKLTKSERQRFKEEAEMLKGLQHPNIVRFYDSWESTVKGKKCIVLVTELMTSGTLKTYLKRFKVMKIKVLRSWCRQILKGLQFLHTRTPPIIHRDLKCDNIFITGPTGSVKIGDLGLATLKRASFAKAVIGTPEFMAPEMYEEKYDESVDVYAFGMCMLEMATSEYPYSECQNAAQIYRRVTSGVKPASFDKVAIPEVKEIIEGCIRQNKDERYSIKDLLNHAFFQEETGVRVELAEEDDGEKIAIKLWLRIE

effect on kinase activity of kinase-dead mutant (hWNK1(181–507 S382A)): no effect
Kd (WNK1 (1–491)): 0.315 µM
SMILES: C=CC1=C(C)/C(=C/c2[nH]c(Cc3[nH]c(/C=C4\NC(=O)C(C)=C4C=C)c(C)c3CCC(=O)O)c(CCC(=O)O)c2C)NC1=O [bilirubin, Bilirubin]
bilirubin-induced effect on [Cl−]i (HEK 293T cell line): not observed
relative expression of phospho-S940 KCC2 (phospho-S940 KCC2; Wnk1fl/fl mice hippocampal tissue): decrease
relative expression of phospho-S940 KCC2 (phospho-S940 KCC2; Wnk1fl/fl,Thy1-Cre mice hippocampal tissue): no such effect
bilirubin-induced effect on [Cl−]i (primary astrocytes): not observed
